The target in one data set is hERG potassium channels (Homo sapiens, UniProt Q12809). To be noted: high doses; cited from earlier work.
A short description of data set [1]: Pharmacokinetic evaluation in rats after bolus IV administration (noribogaine in plasma). Type of data set: in vivo, Sprague Dawley rats. The protocol:
Pharmacokinetic Evaluation of the Tissue Distribution of Two Test Articles (Noribogaine and BTLS (Brain-Targeted Liposomes)-Noribogaine) in Rats
This study was conducted in adult male Sprague Dawley rats, weighing 250-275 g on arrival. Animals were housed according to the vivarium SOP on a 12-hr light cycle with food and water ad libitum.
72 rats were divided into 12 groups of 6. Test articles were dosed at 10 mg/kg of active substance (generic and liposomal formulation) and administered IV through the tail vein as a bolus. Animals were sampled for 24 hours after administration. Terminal blood and tissue samples (brain, heart, kidney, liver) were collected at 0.08, 0.25, 1, 2, 4 and 8 hours after the dose. The study compared the two groups, noribogaine and BTLS-noribogaine formulation. Concentration of noribogaine in the plasma and tissues was measured ex vivo and pharmacokinetic analysis was performed.

A further data set relates to heroin addict. To be noted: oral, cited from earlier work.

Chain of hERG potassium channels (Q12809 whole entry): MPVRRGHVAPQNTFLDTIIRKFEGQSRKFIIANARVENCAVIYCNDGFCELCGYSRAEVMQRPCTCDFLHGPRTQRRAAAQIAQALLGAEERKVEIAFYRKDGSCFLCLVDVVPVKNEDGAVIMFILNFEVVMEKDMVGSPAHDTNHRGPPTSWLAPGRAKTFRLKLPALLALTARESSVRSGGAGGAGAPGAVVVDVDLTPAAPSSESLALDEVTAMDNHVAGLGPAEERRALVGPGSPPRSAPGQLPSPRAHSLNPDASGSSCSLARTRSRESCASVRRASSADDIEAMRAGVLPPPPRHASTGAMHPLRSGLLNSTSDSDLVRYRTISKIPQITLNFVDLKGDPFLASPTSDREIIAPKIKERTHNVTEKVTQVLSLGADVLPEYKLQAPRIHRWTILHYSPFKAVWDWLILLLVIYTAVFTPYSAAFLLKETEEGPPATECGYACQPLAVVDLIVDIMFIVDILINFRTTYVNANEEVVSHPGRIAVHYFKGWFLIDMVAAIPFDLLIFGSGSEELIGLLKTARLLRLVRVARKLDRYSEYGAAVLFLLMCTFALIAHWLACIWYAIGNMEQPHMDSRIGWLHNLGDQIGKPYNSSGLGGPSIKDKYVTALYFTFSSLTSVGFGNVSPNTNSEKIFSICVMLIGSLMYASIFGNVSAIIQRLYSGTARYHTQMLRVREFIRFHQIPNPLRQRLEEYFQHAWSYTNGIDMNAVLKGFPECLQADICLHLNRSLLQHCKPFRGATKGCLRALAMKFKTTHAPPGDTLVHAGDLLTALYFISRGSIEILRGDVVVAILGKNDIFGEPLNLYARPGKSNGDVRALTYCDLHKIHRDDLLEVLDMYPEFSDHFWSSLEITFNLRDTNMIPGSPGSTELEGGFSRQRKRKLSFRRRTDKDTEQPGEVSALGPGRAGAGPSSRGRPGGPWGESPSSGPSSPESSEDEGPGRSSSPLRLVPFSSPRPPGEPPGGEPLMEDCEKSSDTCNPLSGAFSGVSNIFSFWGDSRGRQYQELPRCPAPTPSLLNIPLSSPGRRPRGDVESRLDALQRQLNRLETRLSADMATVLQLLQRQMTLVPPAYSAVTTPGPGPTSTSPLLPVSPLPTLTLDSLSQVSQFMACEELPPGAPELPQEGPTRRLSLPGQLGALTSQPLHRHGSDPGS

Consider `CC[C@H]1C[C@H]2C[C@H]3c4[nH]c5ccc(O)cc5c4CCN(C2)[C@@H]13` [NOR, noribogaine], for which the “Cardiotoxicity: long QT syndrome / hERG block” value on hERG potassium channels is reported as “cause long QT syndrome by blocking hERG potassium channels”. In data set [1] (rat), this molecule returned a Cl of 0.0064 mL/h and a distribution volume (Vss) of 0.0119 mL. In data set [1] (rat plasma), the highest concentration (Cmax) is 223.6 ng/mL, the T_half was found to be 1.4558 h and the time of peak concentration (Tmax) stood at 30 min.
In the case of ibogaine, in the data set on heroin addict (6 mg/kg to 19 mg/kg), the “Treatments effective, share of cases” value is 71%. In the data set on heroin addict (series of 4 treatments), the “Duration of effect of a series of 4 treatments” value is on record as “approximately 3 years”. Besides, the “Duration of effect of a single treatment” value in the data set with heroin addict (single treatment) is “about 6 months”. Besides, the minimum effective dose in the data set on heroin addict was 400 mgs.

Source of the values: patent US20220354862A1, “LIPOSOME DELIVERY OF PSYCHEDELICS” (Mind Medicine, Inc., priority 2021, published 2022).
